Data from patent publication US20240239764A1, “SUBSTITUTED AMINOBENZYL HETEROARYL COMPOUNDS AS EGFR AND/OR PI3K INHIBITORS” (Mekanistic Therapeutics, priority 2020, published 2024).
Read-outs that look alike come from different tables or passages of the source.

Columns and labels:
[1] = Tolerability in the xenograft studies; type: in vivo; details: highest dose tested 100 mg/kg, daily dosing over >50 days, all xenograft studies
Protocol: Xenograft Studies. Female NCR nude mice (CrTac:NCr-Foxn1mu from Taconic), 6-7 weeks old, were implanted subcutaneously with 5×10^6 cells in a […] serum-free media/Matrigel® mixture into the region of the right axilla, Mice were randomized into treatment groups and treatments initiated when tumors reached 100 to 200 mg. Compound 2R was administered daily by oral gavage as a fine suspension in 1:2 propylene glycol in 1% Tween80, Na3PO4 based upon individual animal body weight (0.2 mL/20 g). Subcutaneous tumor volume and body weights were measured two to three times a week. Tumor volumes were calculated by measuring two perpendicular diameters with calipers and using the formula: tumor volume=(length×width2)/2. Individual mice were dosed daily until their tumor burden reached 500 mg for the CAL-27 and HCC-70 models or 1000 mg for the CAL-33 model, to allow for calculation of increase in progression-free survival. Percent increase in survival was calculated by comparing the median time to reach either 500 mg or 1000 mg in the treated group versus the vehicle control group. A complete response (CR) is defined as a tumor below the limits of palpation ([…]).

[2] = Pharmacokinetics in mice, single IV / oral dose; type: in vivo
Protocol: (§1) The pharmacokinetics of Compound 2R (HCl salt) and Comparative Compound 2 were studied following a single intravenous and/or oral administration to mice, dogs, and monkeys (n=3 for all species). The IV and PO solution formulations for Comparative Compound 2 contained 20% (w/v) propylene glycol, 75% (w/v) 50 mM trisodium phosphate (pH 12), and 5% (w/v) Kolliphor EL. The formulation for Compound 2R contained 1:2 propylene glycol: 1% Tween 80/Na3PO4 (50 mM). Subsequent pharmacokinetic data analysis was performed using non-compartmental analysis modules in Phoenix/WINNONLIN 6.3 (Pharsight, St. Louis, Missouri, USA), and the linear trapezoidal rule was used for AUC calculation. Terminal elimination half-life (t½) was calculated based on data points (≥3) in the terminal phase; Tmax=Time of maximum observed concentration; AUClast/D=Area under the concentration-time curve from time zero to the last observed concentration/divided by dose; Cl_obs=Total body clearance; Cmax=maximum observed concentration; F=bioavailability of oral dose form. Blood samples were assayed for compounds using protein precipitation with acetonitrile followed by HPLC/MS/MS analysis. Blood concentration-time data were analyzed by non-compartmental methods.

[3] = Pharmacokinetics in dogs, single IV / oral dose; type: in vivo
Protocol: as §1

[4] = Pharmacokinetics in monkeys, single IV / oral dose; type: in vivo
Protocol: as §1

PI3Ka = PI3Ka (Homo sapiens, UniProt P42336); assay: Z′-LYTE / ADAPTA kinase assay, PI3Ka; type: biochemical; details: for inhibition at 0.1 µM: read-out: PI3Ka % Inh. @100 nM
PI3Ka, sequence (P42336 whole entry): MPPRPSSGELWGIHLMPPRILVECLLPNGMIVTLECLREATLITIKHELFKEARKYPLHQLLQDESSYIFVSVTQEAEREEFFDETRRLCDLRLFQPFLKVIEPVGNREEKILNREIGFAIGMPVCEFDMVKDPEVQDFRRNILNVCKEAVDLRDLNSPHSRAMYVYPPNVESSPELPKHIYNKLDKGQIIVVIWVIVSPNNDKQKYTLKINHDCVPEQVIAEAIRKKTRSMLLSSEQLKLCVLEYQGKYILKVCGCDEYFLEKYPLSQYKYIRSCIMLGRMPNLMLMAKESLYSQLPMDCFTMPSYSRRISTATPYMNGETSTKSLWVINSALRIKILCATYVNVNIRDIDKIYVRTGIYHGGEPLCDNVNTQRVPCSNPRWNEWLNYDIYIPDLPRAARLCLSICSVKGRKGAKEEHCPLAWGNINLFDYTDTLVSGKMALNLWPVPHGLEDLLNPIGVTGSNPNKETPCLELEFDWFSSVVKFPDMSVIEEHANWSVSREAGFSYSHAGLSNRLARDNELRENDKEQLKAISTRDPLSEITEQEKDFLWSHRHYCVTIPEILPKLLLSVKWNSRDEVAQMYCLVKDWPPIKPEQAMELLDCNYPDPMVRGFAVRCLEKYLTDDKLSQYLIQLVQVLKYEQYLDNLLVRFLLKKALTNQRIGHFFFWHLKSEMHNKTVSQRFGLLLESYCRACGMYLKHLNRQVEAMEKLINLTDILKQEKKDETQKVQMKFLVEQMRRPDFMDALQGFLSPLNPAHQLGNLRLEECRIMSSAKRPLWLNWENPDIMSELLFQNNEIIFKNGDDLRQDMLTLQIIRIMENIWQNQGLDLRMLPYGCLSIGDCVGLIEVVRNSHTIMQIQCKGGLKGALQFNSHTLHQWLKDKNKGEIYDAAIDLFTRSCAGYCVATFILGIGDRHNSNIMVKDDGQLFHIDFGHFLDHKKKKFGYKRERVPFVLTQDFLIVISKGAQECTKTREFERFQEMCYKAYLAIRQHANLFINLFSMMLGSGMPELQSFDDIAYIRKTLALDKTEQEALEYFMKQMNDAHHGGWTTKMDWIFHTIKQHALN
PI3Ka, sequence (P27986 whole entry partner): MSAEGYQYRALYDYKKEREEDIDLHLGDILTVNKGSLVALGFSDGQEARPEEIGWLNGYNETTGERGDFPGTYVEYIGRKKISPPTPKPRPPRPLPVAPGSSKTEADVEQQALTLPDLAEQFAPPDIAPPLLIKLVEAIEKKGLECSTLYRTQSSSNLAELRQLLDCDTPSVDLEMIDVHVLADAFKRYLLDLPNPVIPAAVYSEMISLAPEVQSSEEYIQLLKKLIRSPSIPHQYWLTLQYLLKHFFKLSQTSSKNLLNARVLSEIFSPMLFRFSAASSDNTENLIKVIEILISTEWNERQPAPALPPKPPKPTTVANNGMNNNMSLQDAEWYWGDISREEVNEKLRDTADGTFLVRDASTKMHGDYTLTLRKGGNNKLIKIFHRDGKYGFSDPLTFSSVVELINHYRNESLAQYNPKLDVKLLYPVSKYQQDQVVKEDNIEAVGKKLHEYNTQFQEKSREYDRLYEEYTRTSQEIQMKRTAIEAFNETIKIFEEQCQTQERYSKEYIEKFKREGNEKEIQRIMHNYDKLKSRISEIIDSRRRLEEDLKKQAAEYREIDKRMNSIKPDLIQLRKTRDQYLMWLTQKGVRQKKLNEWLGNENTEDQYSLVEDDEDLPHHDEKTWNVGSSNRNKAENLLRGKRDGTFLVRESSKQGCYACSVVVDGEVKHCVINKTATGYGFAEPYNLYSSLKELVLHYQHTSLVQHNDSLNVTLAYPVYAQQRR
Text: (§2) The Z′-LYTE® biochemical assay employs a fluorescence-based, coupled-enzyme format and is based on the differential sensitivity of phosphorylated and non-phosphorylated peptides to proteolytic cleavage (FIG. 6). The peptide substrate is labeled with two fluorophores—one at each end—that make up a FRET pair. In the primary reaction, the kinase transfers the gamma-phosphate of ATP to a single tyrosine, serine or threonine residue in a synthetic FRET-peptide. In the secondary reaction, a site-specific protease recognizes and cleaves non-phosphorylated FRET-peptides. Phosphorylation of FRET-peptides suppresses cleavage by the Development Reagent. Cleavage disrupts FRET between the donor (i.e., coumarin) and acceptor (i.e., fluorescein) fluorophores on the FRET-peptide, whereas uncleaved, phosphorylated FRET-peptides maintain FRET. A ratiometric method, which calculates the ratio (the Emission Ratio) of donor emission to acceptor emission after excitation of the donor fluorophore at 400 nm, is used to quantitate reaction progress.
A significant benefit of this ratiometric method for quantitating reaction progress is the elimination of well-to-well variations in FRET-peptide concentration and signal intensities. As a result, the assay yields very high Z′-factor values (>0.7) at a low percent phosphorylation.
Both cleaved and uncleaved FRET-peptides contribute to the fluorescence signals and therefore to the Emission Ratio. The extent of phosphorylation of the FRET-peptide can be calculated from the Emission Ratio.
Enzyme: The ADAPTA universal kinase assay is a homogenous, fluorescent based immunoassay for the detection of ADP. In contrast to ATP depletion assays, the ADAPTA assay is extremely sensitive to ADP formation such that a majority of the signal change occurs in the first 10-20% conversion of ATP to ADP. This makes the ADAPTA universal kinase assay ideally suited for use with low activity kinases.
The principle of the ADAPTA universal kinase assay is outlined below. The assay itself can be divided into two phases: a kinase reaction phase, and an ADP detection phase. In the kinase reaction phase, all components required for the kinase reaction are added to the well, and the reaction is allowed to incubate for 60 minutes. After the reaction, a detection solution consisting of a europium labeled anti-ADP antibody, an AlexaFluor® 647 labeled ADP tracer, and EDTA (to stop the kinase reaction) is added to the assay well. ADP formed by the kinase reaction (in the absence of an inhibitor) will displace the Alexa Fluor®647 labeled ADP tracer from the antibody, resulting in a decrease in the TR-FRET signal.
Test Compounds: The Test Compounds are screened in 1% DMSO (final) in the well. For 10 point titrations, 3-fold serial dilutions are conducted from the starting concentration.
Peptide/Kinase Mixtures: All Peptide/Kinase Mixtures are diluted to a 2× working concentration in the appropriate Kinase Buffer.
ATP Solution: All ATP Solutions are diluted to a 4× working concentration in Kinase Buffer (50 mM HEPES pH 7.5, 0.01% BRIJ-35, 10 mM MgCl2, 1 mM EGTA). ATP Km apparent is previously determined using a Z′-LYTE® assay.
Development Reagent Solution: The Development Reagent is diluted in Development Buffer.
10× Novel PKC Lipid Mix: 2 mg/mL Phosphatidyl Serine, 0.2 mg/mL DAG in 20 mM HEPES, pH 7.4, 0.3% CHAPS. For 5 mL 10× Novel PKC Lipid Mix: 1. Add 10 mgs Phosphatidyl Serine (Avanti Polar Lipids Part #8400032C or 840039C) and 1 mg DAG (Avanti Polar Lipids Part #800811 C) to a glass tube. 2. Remove the chloroform from lipid mixture by evaporating to a clear, thin film under a stream of nitrogen. Continuous rotation of the tube, at an angle to ensure maximum surface area of the lipid solution, will promote the thinnest film. 3. Add 5 mLs resuspension buffer, 20 mM HEPES, 0.3% CHAPS, pH 7.4, to the dried lipid mix 4. Heat gently to 50-60° C. for 1-2 minutes and vortex in short intervals until the lipids are dissolved to a clear or slightly hazy solution. […]

[5] = Solubility determination (PBS 7.4, SIF, SGF); type: physicochemical; details: kinetic from dmso stock
Protocol: Preparation of stock solutions: The stock solutions of test compounds and control compound diclofenac were prepared in DMSO at the concentrations of 10 mM.
Simulated Gastric Fluid (SGF): An aqueous mixture including hydrochloric acid, sodium chloride, and pepsin (pH=1.2).
Simulated Intestinal Fluid (SIF): Prepared by dissolving 6.8 g of KH2PO4 into about 500 mL ultrapure water and adjust the solution to a pH 6.8 with 0.1 M NaOH. 10 g trypsin is then dissolved into ultrapure water. The two solutions are mixed well and diluted with ultrapure water to a final volume of 1000 mL.
485 μL of (SIF, SGF, PBS 7.4, FESSIF, or FESSGF) was added into each vial of the cap-less Solubility Sample plate. The assay was performed in duplicate. Add one stir stick to each vial and seal using a molded PTFE/Silicone plug. […] After completion of the 2 hours, plugs were removed and the stir sticks were removed using a big magnet, the samples from the Solubility Sample plate were transferred into the filter plate. Using the Vacuum Manifold, all the samples were filtered. Aliquot of 5 μL and 5 μL DMSO were taken from the filtrate followed by addition of 490 μL of a mixture of H2O and acetonitrile containing internal standard (1:1). A certain proportion of ultrapure water was used to dilute the diluent according to the peak shape. The dilution factor was changed according to the solubility values and the LC-MS signal response.
Preparation of 300 μM standards (STD): From the 10 mM DMSO STD plate, 6 μL was transferred into the remaining empty plate, and then 194 μL of DMSO was added to that plate to have a STD concentration of 300 μM. From the 300 μM DMSO STD plate, 5 μL DMSO STD and 5 μL SIF was transferred into the remaining empty plate, and then 490 μL of a mixture of H2O and acetonitrile containing internal standard (1:1) was added to that plate to have a final STD concentration of 3 μM. A certain proportion of ultrapure water was used to dilute the diluent according to the peak shape. The concentrations of the standard samples were changed according to the LC-MS signal response.
Procedure for sample analysis: The plate was placed into the well plate autosampler. The samples were evaluated by LC-MS/MS analysis.
Data analysis: All calculations were carried out using Microsoft Excel. The filtrate was analyzed and quantified against a standard of known concentration using LC coupled with mass spectral peak identification and quantitation. Solubility values of the test compound and control compound were calculated as follows: […]
Any value of the compounds that was not within the specified limits was rejected and the experiment was repeated.

EGFR = EGFR (Homo sapiens, UniProt P00533); assay: Z′-LYTE / ADAPTA kinase assay, EGFR; type: biochemical
EGFR, sequence (P00533 25-1210): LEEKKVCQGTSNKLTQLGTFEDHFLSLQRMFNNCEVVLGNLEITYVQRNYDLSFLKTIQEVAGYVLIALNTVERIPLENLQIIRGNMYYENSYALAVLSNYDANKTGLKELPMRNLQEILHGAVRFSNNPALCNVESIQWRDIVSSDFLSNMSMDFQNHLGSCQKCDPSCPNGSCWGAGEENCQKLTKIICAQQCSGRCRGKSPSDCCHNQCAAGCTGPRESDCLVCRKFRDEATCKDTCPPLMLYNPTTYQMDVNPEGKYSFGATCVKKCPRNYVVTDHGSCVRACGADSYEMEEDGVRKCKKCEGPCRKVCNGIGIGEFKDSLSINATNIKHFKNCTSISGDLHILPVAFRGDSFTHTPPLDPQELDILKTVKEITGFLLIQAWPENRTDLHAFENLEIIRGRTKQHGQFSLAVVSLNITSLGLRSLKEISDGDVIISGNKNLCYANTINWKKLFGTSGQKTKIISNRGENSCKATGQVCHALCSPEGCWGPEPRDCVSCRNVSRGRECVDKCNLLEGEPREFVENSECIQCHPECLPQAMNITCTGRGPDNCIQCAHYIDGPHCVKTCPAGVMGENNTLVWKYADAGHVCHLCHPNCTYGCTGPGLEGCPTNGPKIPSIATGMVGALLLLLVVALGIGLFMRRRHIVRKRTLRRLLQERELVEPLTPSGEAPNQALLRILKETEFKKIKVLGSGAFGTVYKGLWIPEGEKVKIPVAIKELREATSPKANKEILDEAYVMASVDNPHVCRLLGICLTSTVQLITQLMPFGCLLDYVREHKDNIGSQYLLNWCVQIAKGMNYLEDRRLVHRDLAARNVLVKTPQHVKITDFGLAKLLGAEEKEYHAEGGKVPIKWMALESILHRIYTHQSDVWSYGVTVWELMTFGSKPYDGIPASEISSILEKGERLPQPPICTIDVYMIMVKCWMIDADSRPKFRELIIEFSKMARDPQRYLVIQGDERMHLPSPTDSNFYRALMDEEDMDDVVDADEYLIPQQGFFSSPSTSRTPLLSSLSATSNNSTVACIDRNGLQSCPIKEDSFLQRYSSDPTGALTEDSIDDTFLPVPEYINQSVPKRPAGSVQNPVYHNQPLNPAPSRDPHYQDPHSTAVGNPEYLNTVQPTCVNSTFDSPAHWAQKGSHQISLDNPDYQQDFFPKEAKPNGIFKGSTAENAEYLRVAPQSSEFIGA
Text: as §2, with “Cleavage disrupts FRET between the donor (i.e., coumarin) and acceptor (i.e., fluorescein) fluorophores on the FRET-peptide, whereas uncleaved, phosphorylated FRET-peptides maintain FRET.” left out
(§3) A significant benefit of this ratiometric method for quantitating reaction progress is the elimination of well-to-well variations in FRET-peptide concentration and signal intensities. […]
(§4) Both cleaved and uncleaved FRET-peptides contribute to the fluorescence signals and therefore to the Emission Ratio. The extent of phosphorylation of the FRET-peptide can be calculated from the Emission Ratio. […]

DNA-PK = DNA-PK (Homo sapiens, UniProt P78527); assay: Z′-LYTE / ADAPTA kinase assay, DNA-PK; type: biochemical; details: read-out: DNA-PK % Inh. @ 100 nM
Text: as §2, with “Cleavage disrupts FRET between the donor (i.e., coumarin) and acceptor (i.e., fluorescein) fluorophores on the FRET-peptide, whereas uncleaved, phosphorylated FRET-peptides maintain FRET.” left out
as §3, §4

[6] = simulated intestinal fluid (SIF), fassgf or other biorelevant, simulated intestinal fluid pH 6.8, 25° C., read-out: Solubility SIF

C[C@@H](Nc1ncnc2ccc(-c3cnc(Cl)c(NS(C)(=O)=O)c3)cc12)c1ccccc1 [Compound 2R, N-(2-chloro-5-(4-((1R-phenylethyl)amino)quinazolin-6-yl)pyridin-3-yl)methanesulfonamide]
Tolerability (body weight loss, clinical signs) [1]: well tolerated | increase in exposure (AUClast/D) vs Comparative Compound 2 ([2]; IV): ~3 fold | enhanced exposure (AUClast/D) relative to Comparative Compound 2 ([2]; oral): 3 fold | increase in exposure (AUClast/D) vs Comparative Compound 2 ([3]; IV): ~15 fold | improvement in exposure (AUClast/D) vs Comparative Compound 2 ([3]; oral): > 28 fold | increase in exposure (AUClast/D) vs Comparative Compound 2 ([4]; IV): ~3 fold | improvement in exposure (AUClast/D) vs Comparative Compound 2 ([4]; oral): > 74 fold

C[C@@H](Nc1c(C#N)cnc2ccc(-c3cnc(Cl)c(NS(C)(=O)=O)c3)cc12)c1ccccc1 [Compound 48R, N-(2-chloro-5-(3-cyano-4-((1R-phenylethyl)amino)quinolin-6-yl)pyridin-3-yl)methanesulfonamide]
IC50 (PI3Ka): 2 to 20 nM | solubility at 2 h ([5]; aqueous buffer, PBS pH 7.4, 25° C., read-out: Solubility pH 7.4 PBS buffer): ≤ 20 µM | solubility at 2 h ([5]; simulated gastric fluid (SGF), simulated gastric fluid pH 1.2, 25° C., read-out: Solubility SGF): > 200 µM | solubility at 2 h [5, 6]: ≤ 20 µM

CS(=O)(=O)Nc1cc(-c2ccc3ncc(C#N)c(NC4c5ccccc5CC4O)c3c2)cnc1Cl (stereo not drawn) [Compound 103, N-[2-chloro-5-[3-cyano-4-[(2-hydroxyindan-1-yl)amino]-6-quinolyl]-3-pyridyl]methanesulfonamide]
inhibition at 0.1 µM (PI3Ka): > 90%

C[C@@H](Nc1c(C#N)cnc2ccc(-c3cnc(Cl)c(NS(C)(=O)=O)c3)cc12)c1ccc(F)cc1 [Compound 97R, N-[2-chloro-5-[3-cyano-4-[[(1R)-1-(4-fluorophenyl)ethyl]amino]-6-quinolyl]-3-pyridyl]methanesulfonamide]
inhibition at 0.1 µM (PI3Ka): 80 to 90%

CS(=O)(=O)Nc1cc(-c2ccc3ncc(C#N)c(NC4(c5ccccc5)CC4)c3c2)cnc1Cl [Compound 106, N-[2-chloro-5-[3-cyano-4-[(1-phenylcyclopropyl)amino]-6-quinolyl]-3-pyridyl]methanesulfonamide]
inhibition at 0.1 µM (PI3Ka): > 90%

CS(=O)(=O)Nc1cncc(-c2ccc3ncnc(NCc4ccccc4)c3c2)c1 [Comparative Compound 3, reference compound]
IC50 (PI3Ka): 20 to 200 nM | inhibition at 0.1 µM (PI3Ka): 80 to 90% | IC50 (EGFR): 20 to 200 nM | inhibition at 0.1 µM (EGFR; read-out: EGFR % Inh. @ 100 nM): > 90% | inhibition at 0.1 µM (DNA-PK): > 90% | solubility at 2 h [5, 6]: ≤ 20 µM

C[C@H](Nc1c(C#N)cnc2ccc(-c3cnc(Cl)c(NS(C)(=O)=O)c3)cc12)c1ccccc1 [Compound 48S, N-(2-chloro-5-(3-cyano-4-((1S-phenylethyl)amino)quinolin-6-yl)pyridin-3-yl)methanesulfonamide]
IC50 (PI3Ka): < 2 nM
